These results are taken from patent US20130011384A1, “Use of a Material, Produced from Fungal Fermentation, as a Food Supplement” (priority 2010, published 2013).

For this test, the system named is methanogenic archaea. Nature of the test: In vitro sequential batch fermentation of sheep ruminal fluid with alfalfa hay (Example 2). Type of test: cell-based. To be noted: for Acetate / Butyrate / Gas / Methane / Propionate / Total VFA: 48 hrs at 39° C., 100 μl/tube, monacolin K 20 μg/ml final. The source says: The effect of a rice extract fermented by a selected strain of Monascus sp., prepared in accordance with Example 1, on ruminal fermentation, specifically on methane production, was studied in vitro by using a sequential batch fermentation system.
Three sheep equipped with rumen cannulae, receiving hay-based feed twice a day, were used as ruminal content donors. The ruminal contents of the three animals were sampled in the morning before feeding, filtered through a cloth with a mesh size of 400 μm in diameter in order to obtain the liquid phase, and mixed in equal quantities. To seventy-five milliliters of this mixed ruminal fluid was added 300 ml of anaerobic buffer solution (Weller & Pilgrim, Br. J. Nutr. 32:341-51. 1974). An aliquot fraction (5 ml) of this ruminal fluid/buffer solution was then transferred into Hungate tubes in a CO2 atmosphere containing 100±2 mg of alfalfa hay. To each tube was added, respectively: (i) 100 μl of the Monascus extract, or (ii) pure monacolin K, (iii) a 25% (v/v) ethanol solution, or (iv) water (see Table 1 below). The tubes were incubated at 39° C. for 48 hrs. Each treatment was performed three times.
After 48 hrs. of incubation, 2 ml of each of the triplicates of each treatment were mixed, and 1.5 ml of this mixture was used to inoculate 3 new Hungate tubes containing 3.5 ml of buffer and 100 mg of alfalfa hay.
Next, 100 μl of the various treatments was added to the tubes (Cf. Table 1 above), and the tubes were again incubated at 39° C. while stirring for an additional 48 hrs. This procedure was repeated a second time.
At the end of each 48-hr. period, gas production and concentrations of methane and of volatile fatty acids resulting from fermentation were measured.

Consider `CC[C@H](C)C(=O)O[C@H]1C[C@@H](C)C=C2C=C[C@H](C)[C@H](CC[C@@H]3C[C@@H](O)CC(=O)O3)[C@H]21` [Monacolin K, monacolin K], for which, under “1st Transfer”, the Acetate was 69.6 ± 1.5 mmol/L, the Butyrate turned out to be 6.1 ± 0.1 mmol/L, the Gas is 21.9 ± 0.3 mL and the Methane is 162.5 ± 22.9 µmol. Where the note is “1st Transfer”, the Propionate came to 16.7 ± 0.4 mmol/L and the “Total VFA” value worked out at 96.3 ± 2.1. Moreover, under “2nd Transfer”, the Acetate amounted to 49.1 ± 3.8 mmol/L, the Butyrate was 5.9 ± 0.7 mmol/L, the Gas was found to be 17.8 ± 0.5 mL and the Methane amounted to 16.2 ± 17.0 µmol. Also, for the setting “2nd Transfer”, the Propionate was 19.7 ± 2.8 mmol/L and the “Total VFA” value was 76.5 ± 7.4. Under “3rd Transfer”, this compound had an Acetate of 57.3 ± 6.9 mmol/L, a Butyrate of 6.6 ± 1.0 mmol/L, a Gas of 19.2 ± 0.4 mL and a Methane of 59.1 ± 9.4 µmol. Besides, where the note is “3rd Transfer”, the Propionate worked out at 28.5 ± 3.5 mmol/L and the “Total VFA” value is 95.1 ± 11.5. Also, the methane-production-reducing effect entry (in vitro, under the same conditions as the Monascus fermentation product) is “no methane-production-reducing effect”.
